Like-named read-outs stand apart in the source and are kept apart here.
How the values were obtained:
[1] = molecular target: PGPH (caspase-like) activity of rabbit muscle 20S proteasomes (Oryctolagus cuniculus, UniProt A0A5F9DQW2); assay: Inhibition of caspase-like (PGPH) activity of 20S proteasome (Z-LLE-AMC); type: biochemical; settings: Table 3; mean EC50; purified rabbit 20S proteasomes
Description: A commercially available fluorogenic substrate specific for the PGPH activity was used instead of the chymotrypsin substrate supplied in the proteasome assay kit described above.
The substrate Z-LLE-AMC was prepared as a 20 mM stock solution in DMSO, stored at −20° C. The source of the proteasomes was the commercially available kit from Calbiochem (Cat. #539158). As with the chymotrypsin substrate, the proteasome can cleave Z-LLE-AMC into Z-LLE and free AMC. The activity can then be determined by measuring the fluorescence of the released AMC (λex=390 nm and λem=460 nm). The proteasomes were activated with SDS and held on ice as per manufacturer's recommendation. […] The series was diluted 20-fold with assay buffer and preincubated with the proteasomes as described for the chymotrypsin-like activity. After addition of substrate, the samples were incubated at 37° C., and release of the fluorescent AMC was monitored in a fluorimeter. All data were collected and plotted as the mean of triplicate points. […] As before, the model chosen was a sigmoidal dose-response, with a variable slope.

[2] = molecular target: T1, chymotrypsin-like activity of rabbit muscle 20S proteasomes (Oryctolagus cuniculus, UniProt G1T4Q9); assay: Inhibition of chymotrypsin-like activity of purified rabbit muscle 20S proteasome (suc-LLVY-AMC); type: biochemical
T1 sequence (G1T4Q9 1-263): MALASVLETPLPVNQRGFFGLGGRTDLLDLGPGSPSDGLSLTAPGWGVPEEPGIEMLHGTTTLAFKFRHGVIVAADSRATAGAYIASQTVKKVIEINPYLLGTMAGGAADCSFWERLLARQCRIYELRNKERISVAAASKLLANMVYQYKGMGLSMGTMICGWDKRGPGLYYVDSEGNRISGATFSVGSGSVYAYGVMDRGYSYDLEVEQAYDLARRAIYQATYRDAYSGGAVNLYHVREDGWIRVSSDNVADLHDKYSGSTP
Description: This peptide substrate is specific for the chymotrypsin-like enzyme activity of the proteasome.
Omuralide was prepared as a 10 mM stock in DMSO and stored in 5 μL aliquots at −80° C. […] The assay measures the hydrolysis of Suc-LLVY-AMC into Suc-LLVY and AMC. The released coumarin (AMC) was measured fluorometrically by using λex=390 nm and λem=460 nm. The assays were performed in a microtiter plate (Corning 3904), and followed kinetically with measurements every five minutes. The instrument used was a Thermo Lab Systems Fluoroskan, with the incubation chamber set to 37° C. The assays were performed according to the manufacturer's protocol, with the following changes. The proteasome was activated as described with SDS, and held on ice prior to the assay. […] Ten microliters of each dose were added in triplicate to the assay plate, and 190 μL of the activated proteasome was added and mixed. The samples were pre-incubated in the Fluoroskan for 5 minutes at 37° C. Substrate was added and the kinetics of AMC were followed for one hour.

MES-SA/Dx5 cells = assay: cells; settings: for Fold change: ratio of EC50 values (MES-SA/Dx5:MES-SA)
RPMI 8226 cells = assay: Cell growth inhibition (resazurin, 48 hours), RPMI 8226
OVCAR-3 cells = assay: Cell growth inhibition (resazurin, 48 hours), OVCAR-3; type: cell-based, human
Jurkat cells = assay: Cytotoxicity against Jurkat cells; type: cell-based, human
CYP3A4 = CYP3A4 (Homo sapiens, UniProt P08684); assay: Preliminary P450 inhibition screen, CYP3A4
Excerpt: These studies consisted of solubility assessment, LogD^7.4 determination and a preliminary screen to detect cytochrome P450 enzyme inhibition.

[3] = tested on: Caspase-3 activity in Jurkat cells; assay: Caspase-3 activity assay in Jurkat cells; type: cell-based, human; settings: EC50 concentration, 19 hours
Description: Jurkat cells were plated at 2×10^6 cells/3 mL per well in a 6-well plate and incubated at 37° C., 5% (v/v) C02 and 95% (v/v) humidity. […] Bhalla, et al., Blood 82:3133 (1993). […] Cells treated with 0.25% DMSO served as the negative control. The cells were collected by centrifugation and the media removed. Cell pellets were processed for the Caspase-3 activity assay as described in the manufacturer's protocol (EnzChek Caspase-3 Assay Kit from Molecular Probes (E-13183; see Appendix G, which form a part of this application and is also available at hypertext transfer protocol on the worldwide web at “probes.com/media/pis/mp13183.pdf.”. In brief, cell pellets were lysed on ice, mixed with the EnzChek Caspase-3 components in a 96-well plate, and then incubated in the dark for 30 minutes prior to reading fluorescence of cleaved benzyloxycarbonyl-DEVD-AMC using a Packard Fusion with λex=485 nm and λem=530 nm filters. Protein concentrations for lysates were determined using the BCA Protein Assay Kit (Pierce) and these values were used for normalization.

[4] = tested on: LeTx-induced cytotoxicity of RAW264.7 cells
[5] = Maximum Tolerated Dose (MTD) determination; type: in vivo, BALB/c mice
Excerpt: In vivo studies were designed to determine the MTD of Salinosporamide A when administered intravenously to female BALB/c mice.
Animals were observed daily for clinical signs and were weighed individually twice weekly until the end of the experiment (maximum of 14 days after the last day of dosing).

SK-MEL-28 melanoma cells = assay: NCI screen, SK-MEL-28; type: cell-based; settings: Homo sapiens, SK-MEL-28, read-out: LC50
Description: A detailed description of the screening procedure can be found at hypertext transfer protocol (http://) “dtp.nci.nih.gov/branches/btb/ivclsp.html.”
In brief, each of the 60 human tumor cell lines were grown in RPMI 1640 medium, supplemented with 5% fetal bovine serum and 2 mM L-glutamine. Cells were plated at their appropriate density in 96-well microtiter plates and incubated at 37° C., 5% CO2, 95% air and 100% relative humidity. […] Cells were incubated for an additional 48 hours and a sulforhodamine B protein assay was used to estimate cell viability or growth.

[6] = Table 3, mean EC50, purified rabbit 20S proteasomes, read-out: EC50 Values, Chymotrypsin-like
[7] = Homo sapiens, RPMI-8226, Table 13, RPMI 8226
[8] = Homo sapiens, RPMI-8226, read-out: RPMI 8226 EC50 (nM), Table 15, mean EC50
[9] = Homo sapiens, OVCAR-3, Table 13, OVCAR-3
[10] = Homo sapiens, MES-SA/Dx5, read-out: EC50 (nM) MES-SA/Dx5, Table 16
[11] = read-out: EC50 (nM) MES-SA/Dx5, Table 16

Chain of PGPH (caspase-like) activity of rabbit muscle 20S proteasomes (A0A5F9DQW2 1-212): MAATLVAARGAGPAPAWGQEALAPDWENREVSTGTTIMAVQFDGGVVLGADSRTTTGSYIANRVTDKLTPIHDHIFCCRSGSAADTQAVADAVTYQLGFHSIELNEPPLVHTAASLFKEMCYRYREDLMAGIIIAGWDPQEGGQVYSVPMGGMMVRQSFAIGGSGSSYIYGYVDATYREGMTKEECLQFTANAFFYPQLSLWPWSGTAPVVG
Chain of CYP3A4 (P08684 whole entry): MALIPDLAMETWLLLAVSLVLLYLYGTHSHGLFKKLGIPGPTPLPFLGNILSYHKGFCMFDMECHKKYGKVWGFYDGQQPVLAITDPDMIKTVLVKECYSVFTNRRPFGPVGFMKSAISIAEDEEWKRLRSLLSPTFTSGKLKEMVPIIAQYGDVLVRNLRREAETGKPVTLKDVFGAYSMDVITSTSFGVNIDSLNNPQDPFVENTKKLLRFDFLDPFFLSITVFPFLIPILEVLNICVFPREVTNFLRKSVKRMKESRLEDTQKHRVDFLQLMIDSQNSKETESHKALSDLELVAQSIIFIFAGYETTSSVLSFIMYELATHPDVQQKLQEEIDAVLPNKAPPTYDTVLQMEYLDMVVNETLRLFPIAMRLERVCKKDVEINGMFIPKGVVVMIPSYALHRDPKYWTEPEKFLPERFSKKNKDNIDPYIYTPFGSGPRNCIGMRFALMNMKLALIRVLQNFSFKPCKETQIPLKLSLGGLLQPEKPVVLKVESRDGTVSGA

In the case of `C[C@@]12OC(=O)[C@]1([C@@H](O)[C@@H]1C=CCCC1)NC(=O)[C@@H]2CCBr` [Formula II-18], the EC50 [1] is reported as 250 nM, the EC50 [2, 6] is reported as 2.2 nM and the Fold change (MES-SA/Dx5 cells; Table 16) is reported as 1.2 fold. For the same compound, the EC50 (RPMI 8226 cells; Homo sapiens, RPMI-8226, 48 h, read-out: EC50, μM (mean ± SD), Table 9, RPMI 8226, 48 hour) was 0.017 µM, the EC50 (RPMI 8226 cells; [7]) was 0.0063 µM and the EC50 (RPMI 8226 cells; [8]) was 0.0063 µM. For the same compound, the “% cytotoxicity, mean ± SD” value (RPMI 8226 cells; Table 9, RPMI 8226, 48 hour) was 94, 94%, the EC50 (RPMI 8226 cells; read-out: EC50, μM (mean ± SD), Table 9, RPMI 8226, 48 hour) was 0.022 µM and the EC50 (OVCAR-3 cells; [9]) was greater than 2000 nM.
Compound `C[C@@]12OC(=O)[C@]1([C@@H](O)C1CCCCC1)NC(=O)[C@@H]2CCBr` [Formula II-4] has an EC50 [2, 6] of 14.2 nM, an EC50 ([2]; representative experiment, Example 44 (FIG. 46, 47), read-out: EC50, chymotrypsin-like activity of the proteasome) of 15 nM and an EC50 (MES-SA/Dx5 cells; [10]) of 178 nM. For the same compound, the Fold change (MES-SA/Dx5 cells; Table 16) was 0.9 fold, the EC50 (MES-SA/Dx5 cells; [11]) was 93 nM and the EC50 (RPMI 8226 cells; [7]) was 0.057 µM. The EC50 (RPMI 8226 cells; [8]) was 0.054 µM and the EC50 (OVCAR-3 cells; [9]) was greater than 6320 nM.
For `C[C@@]12OC(=O)[C@]1([C@@H](O)[C@@H]1C=CCCC1)NC(=O)[C@@H]2CCCl` [Formula II-16, Salinosporamide A], the EC50 (Jurkat cells; Homo sapiens, Jurkat) was 10 nM, the “% max cell kill” value (Jurkat cells; Table 5, Jurkat Cells) was 97% and the inhibition at 10 µM (CYP3A4) was 6%. For the same compound, the Caspase-3 activity [3] was “activation of Caspase-3”, the “cell-viability, compound + LeTx” value [4] was 82% and the “increase in the viability of LeTx-treated cells compared to LeTx treatment alone” value [4] was 10 fold. For the same compound, the EC50 ([4]; read-out: average EC50, viability of LeTx-treated cells) was 3.6 nM, the “more potent than Omuralide” value ([2]; 20S proteasome assay EC50 values) was “approximately 40 fold” and the EC50 (MES-SA/Dx5 cells; Homo sapiens, MES-SA/Dx5, read-out: EC50 (nM), mean ± SD) was 23 ± 1 nM. For the same compound, the “% cytotoxicity, mean ± SD” value (MES-SA/Dx5 cells; Table 7, MES-SA/Dx5) was 92 ± 2%, the “behavioral changes during the course of the experiment” value ([5]; 0.01 to 0.5 mg/kg i.v.) was “No behavioral changes were noted” and the “dose well tolerated when administered daily for five consecutive days” value ([5]; i.v., qdx5, female BALB/c mice) was “up to 0.1 mg/kg”. For the same compound, the “single intravenous dose tolerated” value ([5]; i.v., single dose (qdx1), female BALB/c mice) was “up to 0.25 mg/kg”, the EC50 (RPMI 8226 cells; Homo sapiens, RPMI-8226, 48 h, read-out: EC50 (nM), mean ± SD) was 0.0086 ± 0.0019 µM and the EC50 (RPMI 8226 cells; Homo sapiens, RPMI-8226, read-out: EC50 (nM), mean ± SD) was 0.01 ± 0.003 µM. The “% cytotoxicity, mean ± SD” value (RPMI 8226 cells; Table 6, RPMI 8226 (n = 5)) was 94 ± 1%, the “% cytotoxicity, mean ± SD” value (RPMI 8226 cells; Table 9, RPMI 8226, 48 hour) was 94 ± 0% and the EC50 (OVCAR-3 cells; Homo sapiens, OVCAR-3, 48 h) was 69 nM. It also gave an EC50 (OVCAR-3 cells; Homo sapiens, OVCAR-3, 48 h, read-out: EC50 (nM), mean ± SD) of 49 ± 31 nM and a CC50 (SK-MEL-28 melanoma cells) of less than 10 nM.
`C[C@@]12OC(=O)[C@]1([C@@H](O)C1CCCCC1)NC(=O)[C@@H]2CCCl` [Formula II-2] showed an EC50 [1] of 1500 nM, an EC50 ([2]; EC50, chymotrypsin-like activity of the proteasome) of 18.5 nM and an EC50 ([2]; EC50 Values, Chymotrypsin-like) of 18 nM. It also gave an EC50 (MES-SA/Dx5 cells; [10]) of 220 nM, a Fold change (MES-SA/Dx5 cells; Table 16) of 1.0 fold and an EC50 (MES-SA/Dx5 cells; [11]) of 138 nM. For the same compound, the EC50 (RPMI 8226 cells; [7]) was 0.049 µM, the EC50 (RPMI 8226 cells; [8]) was 0.047 µM and the EC50 (RPMI 8226 cells; Table 13, RPMI 8226) was 0.045 µM. For the same compound, the EC50 (OVCAR-3 cells; [9]) was 188 nM and the EC50 (OVCAR-3 cells; Table 13, OVCAR-3) was 251 nM.

Reference: patent US20050049294A1, “Methods of using [3.2.0] heterocyclic compounds and analogs thereof” (priority 2003, published 2005)
